Assay results published in patent publication US6969718B2, “17-β hydroxysteroid dehydrogenase type 3 inhibitors for the treatment of androgen dependent diseases” (Schering Corporation, priority 2001, dated 2005).

Row | melting point | SMILES
1 | 76 to 82 °C | CC(C)[C@H]1CN(C(C)c2ccc(Cl)cc2)CCN1C(=O)CC1CCN(C(N)=O)CC1 (stereo partly drawn) [Example 101]
2 | 49 to 53 °C | CC(=O)N1CCC(CC(=O)N2CCN(Cc3ccc(Cl)c(Cl)c3)C[C@@H]2C(C)(C)C)CC1 [Example 104]
3 | 62.1 to 63.6 °C | CC(=O)N1CCC(CC(=O)N2CCN(Cc3ccccc3-c3ccc(Cl)c(Cl)c3)C[C@@H]2C(C)(C)C)CC1 [Example 106]
4 | 145.7 to 147 °C | CC(=O)N1CCC(CC(=O)N2CCN(Cc3ccc(-c4ccc(Cl)c(Cl)c4)cn3)C[C@@H]2C(C)(C)C)CC1 [Example 107]
5 | 61 to 63 °C | CC(=O)N1CCC(CC(=O)N2CCN(C(CC3CC3)c3ccc(Cl)c(Cl)c3)C[C@@H]2C(C)(C)C)CC1 (stereo partly drawn) [Example 109]
6 | 61 to 65 °C | CC(=O)N1CCC(CC(=O)N2CCN(C(CC3CC3)c3ccc(Cl)c(Cl)c3)C[C@@H]2C(C)(C)C)CC1 (stereo partly drawn) [Example 110]
7 | 61 to 63 °C | CC(=O)N1CCC(CC(=O)N2CCN(C(CCC(F)(F)F)c3ccc(C(F)(F)F)cc3)C[C@@H]2C(C)(C)C)CC1 (stereo partly drawn) [Example 111]
8 | 80 to 85 °C | CC(C)(C)[C@H]1CN(Cc2ccc(Cl)c(Cl)c2)CCN1C(=O)CC1CCN(C(N)=O)CC1 [Example 113]
9 | 98.8 to 102.4 °C | CC(C)(C)[C@H]1CN(Cc2ccccc2-c2ccc(Cl)c(Cl)c2)CCN1C(=O)CC1CCN(C(N)=O)CC1 [Example 114]
10 | 95.2 to 98 °C | CC(C)(C)[C@H]1CN(Cc2ccc(-c3ccc(Cl)c(Cl)c3)cn2)CCN1C(=O)CC1CCN(C(N)=O)CC1 [Example 115]
11 | 91 to 94 °C | CC(C)(C)[C@H]1CN(C(CC2CC2)c2ccc(Cl)c(Cl)c2)CCN1C(=O)CC1CCN(C(N)=O)CC1 (stereo partly drawn) [Example 116]
12 | 76 to 80 °C | CC(C)(C)[C@H]1CN(C(CCC(F)(F)F)c2ccc(C(F)(F)F)cc2)CCN1C(=O)CC1CCN(C(N)=O)CC1 (stereo partly drawn) [Example 117]
